One experiment has as its target T1, human MPO (Homo sapiens, UniProt P05164).
T1 construct: purchased Planta
The experiment is described as follows: in vitro MPO assay measuring production of hypochlorus acid (HOCl). Format: biochemical. Particulars: for IC50: read-out: Inhibition of human MPO-HOCl production, pIC50 (converted); for Inhibition of human MPO-HOCl production, pIC50: 2.5 nM purified human MPO, 100 uM H2O2, pH 6.5, 15 min preincubation, 10 min at room temperature, pIC50 = -log IC50. Here is the method:
Here we describe an in vitro MPO assay that was developed to assess inhibition of enzyme activity. Essentially the MPO assay was designed to measure the production of hypochlorus acid (HOCl), which is the key physiological product generated by the enzyme in vivo. An outline of the assay reactions is given: [drawing 5]
Compounds were preincubated with the MPO enzyme in buffer for about 15 min prior to start of reaction with H2O2. The whole reaction was carried out at room temperatutre for 10 min in a 96-well plate. […] All test concentrations were done in duplicated with at least two separate determinations n=2, unless otherwise stated. The inhibitory concentration for a compound is presentated as pIC50, which is −log IC50.

Experiment [1] has as its system stimulated human neutrophils. The experiment in a line: functional human neutrophil assay, HOCl production by PMA-stimulated neutrophils. Type of experiment: cell-based. Particulars: 2x10^6 neutrophils, PMA 1 μg/ml, 15 min preincubation, 30 min at 37C, read-out: Inhibition of HOCl production by stimulated human neutrophils, pIC50 (converted). Here is the method: Here we describe the use of a functional human neutrophil assay to determine the effects of MPO inhibitors on the production of HOCl. This assay detects the production of HOCl from stimulated (e.g. PMA, LPS, fMLP, zymozan) human neutrophils. Human neutrophils were purified from fresh heparinised blood by density centrifugation on Polymorphprep (Nycomed). These neutrophils were used immediately after purification. A standard reaction mixture contained the following: 2×10^6 neutrophils, 140 mM NaCl, 5 mM taurine, 0.5 mM MgCl2, 1 mM CaCl2 and 1 mg/ml glucose. Test compounds were made up in DMSO and added to cells, with a final DMSO concentration of 0.5%. Test compounds were given 15 min preincubation at 37C with neutrophils prior to the addition of the PMA stimulant (1 μg/ml). The assay was then allowed to progress for another 30 min at 37C. At the end of the incubation, supernatants were collected by centrifugation and assayed for HOCl by using the stop/development reagent as above. All compounds were tested in duplicate with at least two separate determinations n=2 from two different donors.

pIC50: −log10 of the molar value. Read-outs that look alike come from different tables or passages of the source.

T1 sequence (P05164 279-745 limits assumed): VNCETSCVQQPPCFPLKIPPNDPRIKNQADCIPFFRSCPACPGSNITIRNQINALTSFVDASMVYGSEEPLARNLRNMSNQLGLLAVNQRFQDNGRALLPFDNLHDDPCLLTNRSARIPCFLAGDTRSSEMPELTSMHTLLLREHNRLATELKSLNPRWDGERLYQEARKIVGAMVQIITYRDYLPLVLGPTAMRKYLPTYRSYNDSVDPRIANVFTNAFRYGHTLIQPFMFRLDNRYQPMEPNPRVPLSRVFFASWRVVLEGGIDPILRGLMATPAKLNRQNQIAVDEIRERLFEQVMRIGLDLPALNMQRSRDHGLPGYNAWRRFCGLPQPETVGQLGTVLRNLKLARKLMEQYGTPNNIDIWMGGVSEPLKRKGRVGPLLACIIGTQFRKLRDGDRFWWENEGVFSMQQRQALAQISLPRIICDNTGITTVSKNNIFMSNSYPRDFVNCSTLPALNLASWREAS
T1 sequence (P05164 165-273 limits assumed): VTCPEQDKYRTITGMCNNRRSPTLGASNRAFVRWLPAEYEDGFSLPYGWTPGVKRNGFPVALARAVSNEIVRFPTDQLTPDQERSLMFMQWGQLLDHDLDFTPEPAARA

In the case of `CCOC(=O)c1cccc(N)c1` [3-Aminobenzoic acid ethylester], at human MPO, the IC50 is 631 nM.

With `Cc1c[nH]c2ccccc12` [3-Methylindole], on human MPO, the IC50 was 1260 nM. For `COc1ccc2[nH]ccc2c1` [5-Methoxyindole], on human MPO, the IC50 was 2510 nM. Compound `COc1ccc2[nH]cc(CCN)c2c1` [5-Methoxytryptamine] had a pIC50 against human MPO of 6.20. For the compound `COc1ccc2[nH]cc(CCO)c2c1` [5-Methoxytryptophol], the “Inhibition of human MPO-HOCl production, pIC50” value at human MPO was 6.3. Take `COc1ccc2cc[nH]c2c1` [6-Methoxyindole]: the IC50 at human MPO was 1580 nM. In the case of `Nc1ccc(S(=O)(=O)c2ccc(N)cc2)cc1` [Dapsone], the “relative potency as inhibitor of HOCl production by human MPO (in words)” value at human MPO (human MPO) was “most potent inhibitor of the sulfones/sulfonamides tested”. The IC50 was 631 nM on human MPO and 20000 nM in experiment [1]. At human MPO, `c1ccc2[nH]ccc2c1` [Indole] showed a pIC50 of 5.70. Take `COc1ccc2[nH]cc(CCNC(C)=O)c2c1` [Melatonin]: the IC50 on human MPO was 794 nM.

Take `Nc1ccc(S(=O)(=O)Nc2nccs2)cc1` [N-1(2 thiazolyl)-sulfanilamide]: the “Inhibition of human MPO-HOCl production, pIC50” value on human MPO was 6.0. On to `CN1C(C(=O)Nc2ccccn2)=C(O)c2ccccc2S1(=O)=O` [Piroxicam], for which the IC50 on human MPO is 2510 nM. On to `COc1cc(NC(C)CCCN)c2ncccc2c1` (stereo not drawn) [Primaquine], for which, in experiment [1], the IC50 is 12600 nM. `Nc1ccc(S(=O)(=O)Nc2ncccn2)cc1` [Sulfadiazine]: the IC50 on human MPO was 6310 nM. On to `[H]/N=C(/N)NS(=O)(=O)c1ccc(N)cc1` [Sulfaguanidine], for which the IC50 at human MPO is 3160 nM.

Take `Nc1ccc(S(N)(=O)=O)cc1` [Sulfanilamide]: the IC50 at human MPO was 1000 nM; in experiment [1] it was 15800 nM. As for `CC(=O)Nc1ccc(S(=O)(=O)Nc2ccc([N+](=O)[O-])cc2)cc1` [Sulfanitran], the IC50 on human MPO was 7940 nM. Regarding `Nc1ccc(S(=O)(=O)Nc2ccccn2)cc1` [Sulfapyridine], the IC50 on human MPO is 2000 nM; in experiment [1] it was 31600 nM. `Cc1noc(NS(=O)(=O)c2ccc(N)cc2)c1C` [Sulfisoxazole]: at human MPO, the IC50 was 6310 nM. Consider `COc1cc(C=O)ccc1O` [Vanillin], for which, on human MPO, the IC50 is 7940 nM. Still for that read-out and setting: as for `N=C(N)c1ccc(N)cc1` [p-Aminobenzamidine], the figure is 2510 nM.

One may read the pIC50 as the IC50 on a negative log10 scale, so that one unit is a factor of ten. Read a high pIC50 as a low IC50.

For the origin of these results see patent publication US20040029871A1, “Pharmaceutical compounds for treating copd” (priority 2000, published 2004).
